Source: patent publication US20260215423A1, “NOVEL CARBOXAMIDE AND SULFONAMIDE PESTICIDAL COMPOUNDS” (SYNGENTA CROP PROTECTION AG, priority 2023, published 2026)

Columns and labels:
Type in all cases: in vivo
[1] = tested on: Diabrotica balteata (Corn root worm); assay: Diabrotica balteata (Corn root worm); conditions: 96 h, application rate of 200 ppm, maize sprouts sprayed, L2 larvae, 4 days after infestation, read-out: effect in at least one of the two categories (mortality or growth inhibition)
Method: Example B2: Diabrotica balteata (Corn root worm)
Maize sprouts placed onto an agar layer in 24-well microtiter plates were treated with aqueous test solutions prepared from 10′000 ppm DMSO stock solutions by spraying. After drying, the plates were infested with L2 larvae (6 to 10 per well). The samples were assessed for mortality and growth inhibition in comparison to untreated samples 4 days after infestation.

[2] = tested on: Euschistus heros (Neotropical Brown Stink Bug); assay: Euschistus heros (Neotropical Brown Stink Bug); conditions: 120 h, application rate of 200 ppm, soybean leaves sprayed, N2 nymphs, 5 days after infestation, read-out: effect in at least one of the two categories (mortality or growth inhibition)
Method: Example B3: Euschistus heros (Neotropical Brown Stink Bug)
Soybean leaves on agar in 24-well microtiter plates were sprayed with aqueous test solutions prepared from 10′000 ppm DMSO stock solutions. After drying the leaves were infested with N2 nymphs. The samples were assessed for mortality and growth inhibition in comparison to untreated samples 5 days after infestation.

[3] = tested on: Myzus persicae (Green Peach Aphid); assay: Myzus persicae (Green Peach Aphid) Feeding/Contact Activity, eggplant leaf discs; conditions: foliar, 144 h, application rate of 200 ppm, eggplant leaf discs sprayed, aphid population of mixed ages, 6 days after infestation, read-out: growth inhibition
Excerpt: Example B8: Myzus persicae (Green Peach Aphid) Feeding/Contact Activity Eggplant leaf discs were placed onto agar in a 24-well microtiter plate and sprayed with aqueous test solutions prepared from 10′000 ppm DMSO stock solutions. After drying, the leaf discs were infested with an aphid population of mixed ages. […]

[4] = tested on: Plutella xylostella (Diamond back moth); assay: Plutella xylostella (Diamond back moth); conditions: 192 h, application rate of 200 ppm, artificial diet treated by pipetting, Plutella eggs, 8 days after infestation, read-out: effect in at least one of the two categories (mortality or growth inhibition)
Method: After drying, Plutella eggs were pipetted through a plastic stencil onto a gel blotting paper and the plate was closed with it. The samples were assessed for mortality and growth inhibition in comparison to untreated samples 8 days after infestation.

[5] = tested on: Myzus persicae (Green Peach Aphid); assay: Myzus persicae (Green Peach Aphid): Feeding/Contact Activity, sunflower leaf discs; conditions: foliar, 144 h, application rate of 200 ppm, sunflower leaf discs sprayed, aphid population of mixed ages, 6 days after infestation
Method: Example B6: Myzus persicae (Green Peach Aphid):Feeding/Contact Activity
Sunflower leaf discs were placed onto agar in a 24-well microtiter plate and sprayed with aqueous test solutions prepared from 10′000 ppm DMSO stock solutions. After drying, the leaf discs were infested with an aphid population of mixed ages. The samples were assessed for mortality 6 days after infestation.

[6] = tested on: Bemisia tabaci (Cotton White Fly); assay: Bemisia tabaci (Cotton White Fly): Feeding/Contact Activity; conditions: foliar, 144 h, application rate of 200 ppm, cotton leaf discs sprayed, adult white flies, 6 days after incubation
Method: Example B1: Bemisia tabaci (Cotton White Fly): Feeding/Contact Activity
Cotton leaf discs were placed on agar in 24-well microtiter plates and sprayed with aqueous test solutions prepared from 10′000 ppm DMSO stock solutions. After drying the leaf discs were infested with adult white flies. The samples were checked for mortality 6 days after incubation.

[7] = tested on: Myzus persicae (Green Peach Aphid); assay: Myzus persicae (Green Peach Aphid). Intrinsic Activity; conditions: 120 h, test rate of 12 ppm, mixed with sucrose solution, feeding through Parafilm, 5 days after infestation
Excerpt: Example B7: Myzus persicae (Green Peach Aphid). Intrinsic Activity
Test compounds prepared from 10′000 ppm DMSO stock solutions were applied by pipette into 24-well microtiter plates and mixed with sucrose solution. The plates were closed with a stretched Parafilm. A plastic stencil with 24 holes was placed onto the plate and infested pea seedlings were placed directly on the Parafilm. The infested plate was closed with a gel blotting paper and another plastic stencil and then turned upside down. The samples were assessed for mortality 5 days after infestation.

[8] = tested on: Tetranychus urticae (Two-Spotted Spider Mite); assay: Tetranychus urticae (Two-Spotted Spider Mite): Feeding/Contact Activity; conditions: foliar, 192 h, application rate of 200 ppm, bean leaf discs sprayed, mite population of mixed ages (mobile stages), 8 days after infestation
Method: Example B11: Tetranychus urticae (Two-Spotted Spider Mite):Feeding/Contact Activity
Bean leaf discs on agar in 24-well microtiter plates were sprayed with aqueous test solutions prepared from 10,000 ppm DMSO stock solutions. After drying the leaf discs were infested with a mite population of mixed ages. The samples were assessed for mortality on mixed population (mobile stages) 8 days after infestation.

[9] = tested on: Frankliniella occidentalis (Western Flower Thrips); assay: Frankliniella occidentalis (Western Flower Thrips): Feeding/Contact Activity, sunflower leaf discs; conditions: foliar, 168 h, application rate of 200 ppm, sunflower leaf discs sprayed, population of mixed ages, 7 days after infestation
Method: Example B4: Frankliniella occidentalis (Western Flower Thrips):Feeding/Contact Activity
(§1) Sunflower leaf discs were placed on agar in 24-well microtiter plates and sprayed with aqueous test solutions prepared from […] stock solutions. After drying the leaf discs were infested with a Frankliniella population of mixed ages. The samples were assessed for mortality 7 days after infestation.

[10] = tested on: Frankliniella occidentalis (Western Flower Thrips); assay: Frankliniella occidentalis (Western Flower Thrips) Feeding/Contact Activity, bean leaf discs; conditions: foliar, 96 h, application rate of 200 ppm, bean leaf discs sprayed, population of mixed ages, 4 days after infestation, read-out: growth inhibition
Method: as §1, with “Example B5: Frankliniella occidentalis (Western Flower Thrips) Feeding/Contact Activity Bean” for “Sunflower”, “4” for “7”

[11] = tested on: Spodoptera littoralis (Egyptian Cotton Leaf Worm); assay: Spodoptera littoralis (Egyptian Cotton Leaf Worm); conditions: foliar, 72 h, application rate of 200 ppm, cotton leaf discs sprayed, five L1 larvae, 3 days after infestation, read-out: control (mortality, anti-feeding effect, growth inhibition)
Method: Example B10: Spodoptera littoralis (Egyptian Cotton Leaf Worm)
Cotton leaf discs were placed onto agar in 24-well microtiter plates and sprayed with aqueous test solutions prepared from 10′000 ppm DMSO stock solutions. After drying the leaf discs were infested with five L1 larvae. The samples were assessed for mortality, anti-feeding effect, and growth inhibition in comparison to untreated samples 3 days after infestation. Control of Spodoptera littoralis by a test sample is given when at least one of the categories mortality, anti-feedant effect, and growth inhibition is higher than the untreated sample.

CCC(=O)NCc1cc(OC[C@H](C)N(COC)S(=O)(=O)C(F)(F)F)ccc1Cl [P-3, N-[[2-chloro-5-[(2S)-2-[methoxymethyl(tri-fluoromethylsulfonyl)-amino]propoxy]phenyl]methyl]propanamide]
≥ 80%: percent effect (mortality or growth inhibition) at 200 ppm [1] | percent effect (mortality or growth inhibition) at 200 ppm [2] | inhibition at 200 ppm [3] | percent effect (mortality or growth inhibition) at 200 ppm [4] | mortality at 200 ppm [5] | mortality at 200 ppm [6] | mortality at 12 ppm [7] | mortality at 200 ppm [8] | mortality at 200 ppm [9]

CCC(=O)NCc1cc(OC[C@H](C)N(C(=O)CC)S(=O)(=O)C(F)(F)F)ccc1Cl [P-18, N-[[2-chloro-5-[(2S)-2-[propanoyl(trifluoro-methylsulfonyl)amino]propoxy]phenyl]methyl] propanamide]
≥ 80%: percent effect (mortality or growth inhibition) at 200 ppm [1] | percent effect (mortality or growth inhibition) at 200 ppm [2] | inhibition at 200 ppm [10] | inhibition at 200 ppm [3] | percent effect (mortality or growth inhibition) at 200 ppm [4] | mortality at 200 ppm [11] | mortality at 12 ppm [7] | mortality at 200 ppm [8]
